These results are taken from paper PMC6471485, “Selective Inhibitors of a Human Prolyl Hydroxylase (OGFOD1) Involved in Ribosomal Decoding” (Chemistry (Weinheim an Der Bergstrasse, Germany), 2019).

“Also recorded” adds a separate entry of the source.

The target in test [1] is T1, OGFOD1 (Homo sapiens, UniProt Q8N543).
T1 sequence (Q8N543 1-542): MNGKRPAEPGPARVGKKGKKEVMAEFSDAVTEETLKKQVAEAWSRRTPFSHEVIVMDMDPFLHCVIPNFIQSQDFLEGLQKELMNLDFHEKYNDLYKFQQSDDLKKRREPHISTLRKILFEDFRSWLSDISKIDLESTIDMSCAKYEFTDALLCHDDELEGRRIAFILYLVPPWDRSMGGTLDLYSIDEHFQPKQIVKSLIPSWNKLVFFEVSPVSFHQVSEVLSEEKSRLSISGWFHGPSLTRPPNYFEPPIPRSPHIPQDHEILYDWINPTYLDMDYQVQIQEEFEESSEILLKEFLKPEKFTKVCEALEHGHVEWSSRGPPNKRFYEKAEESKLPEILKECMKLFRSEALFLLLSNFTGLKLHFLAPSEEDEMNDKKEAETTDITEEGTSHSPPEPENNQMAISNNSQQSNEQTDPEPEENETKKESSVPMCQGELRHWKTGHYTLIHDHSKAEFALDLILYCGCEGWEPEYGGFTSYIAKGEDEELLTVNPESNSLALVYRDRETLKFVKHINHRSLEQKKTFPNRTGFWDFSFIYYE
Description: wLOGSY NMR binding experiment with OGFOD1. The settings on record: 120 µM inhibitor, 15 µM OGFOD1. As to the method:
total echo time of 40 ms, a relaxation delay of 2 s, with 256 scans. Water suppression was achieved by presaturation. Samples contained 30 µM apo-PHD2181-426 or OGFOD1, supplemented with 60 µM Zn(II), 30 µM of inhibitor, all in 50 mM Tris-d11, pH 7.5, 10 % D2O, […]
wLOGSY Binding Experiments: For water-ligand observed gradient spectroscopy (wLOGSY) analyses, typical experimental parameters were the following: mixing time, 1 s; relaxation delay, 2 s; number of transients, 512. Solvent excitation was achieved using a 16-ms 180° selective rectangular shape pulse with 1,000 points (Squa100.1000) set at the H2O frequency.
Water suppression was achieved by a 2-ms sinc pulse (Sinc1.1000) at the H2O frequency.
Samples contained 5-fold molar excess inhibitor:protein as detailed in the figure legends; all analyses were in 50 mM Tris-d11, pH 7.5, 10 % D2O, 90 % H2O supplemented with 60 µM […]
Competition Experiments by 2OG Displacement: 2OG displacement assays[12] were performed using CPMG-edited 1H spectra. The PROJECT-CPMG sequence was applied as described by Aguilar et al.[11] The standard experimental parameters used were a total echo time of 40 ms, a relaxation delay of 2 s, with 160 scans. Water suppression was achieved by presaturation. The 2OG methylene resonance at 2.35 ppm was monitored. The percentage 2OG displacement was […]
% 2OG displacement = !2OG%!2OG(0) ×100 […]

Test [2] concerns the target T1, OGFOD1. Description: CPMG-edited 1H NMR binding experiment with OGFOD1. The settings on record: 30 µM inhibitor, 30 µM OGFOD1. As to the method: RapidFire integrator software (Agilent). Percent conversion was calculated in Excel, and IC50 curves were generated using Prism v. 7.0 (GraphPad).
Differential Scanning Fluorimetry (DSF) Assays
Assays consisted of enzyme (2 µM), inhibitor (200 µM), MnCl2 (50 µM), and SYPRO Orange (1:5000 dilution), all prepared in 50 mM HEPES, pH 7.5. Assays were conducted using white 96-well RT-PCR plates. An Opticon thermal cycler (MJ Research Inc) was used to control temperature and measure fluorescence. Data were processed using the OpticonMONITOR Analysis Software, while curve fitting was performed in Prism […]
Stable small-molecule inhibitor conformations were investigated using the MM2 force field method in ChemBio3D 11.0 (PerkinElmer Informatics). Protein structures were aligned using PyMOL version 2.0 (Schrödinger, LLC). The small-molecule inhibitors were then modelled into the protein active sites, overlaying them with the already contained inhibitor, if applicable (e.g., FG2216 with PHD2, PDB 3HQU; N-oxalylglycine with OGFOD1, PDB 4NHX). […]
CPMG Binding Experiments: Binding of the inhibitors to the proteins was monitored using Carr-Purcell-Meiboom-Gill (CPMG)-edited 1H spectra. […]
Competition Experiments by 2OG Displacement: 2OG displacement assays[12] were performed using CPMG-edited 1H spectra. […] The 2OG methylene resonance at 2.35 ppm was monitored. […]

Regarding `Cn1c(O)c(C(=O)CCc2cccs2)c(=O)n(C)c1=O` [compound 42], the “binding to OGFOD1 by wLOGSY NMR, in words” value in test [1] was “indicates a binding interaction”. Besides, the “binding to OGFOD1 by 1H CPMG NMR, in words” value in test [2] (listed as CCT4) is “strong binding; also recorded: strongly bind to OGFOD1”.

As for `Cn1c(O)c(C(=O)CCc2ccccc2)c(=O)n(C)c1=O` [compound 26], the “binding to OGFOD1 by wLOGSY NMR, in words” value in test [1] is listed as “indicates a binding interaction”. For the same molecule, the “binding to OGFOD1 by 1H CPMG NMR, in words” value in test [2] (listed as CCT3) is reported as “strong binding; also recorded: strongly bind to OGFOD1”.
